Assay results: PubChem BioAssay (NCI)
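Following 48 hours of exposure in 96-well plates, responses at five concentrations were used to interpolate endpoints linearly. GI50 is the concentration that inhibits growth by half. TGI: total growth inhibition.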

Legend:
Experiment in all cases: NCI anticancer screen, dose series, 48 h
786-0 renal = test system: 786-0 renal
A498 renal = test system: A498 renal
A549 NSCLC = test system: A549 NSCLC
ACHN renal = test system: ACHN renal
BT-549 breast = test system: BT-549 breast
CAKI-1 renal = test system: CAKI-1 renal
CCRF-CEM leukemia = test system: CCRF-CEM leukemia
COLO 205 colon = test system: COLO 205 colon
DU-145 prostate = test system: DU-145 prostate
EKVX NSCLC = test system: EKVX NSCLC
HCC-2998 colon = test system: HCC-2998 colon
HCT-116 colon = test system: HCT-116 colon
HCT-15 colon = test system: HCT-15 colon
HL-60(TB) leukemia = test system: HL-60(TB) leukemia
HOP-62 NSCLC = test system: HOP-62 NSCLC
HOP-92 NSCLC = test system: HOP-92 NSCLC
HS 578T breast = test system: HS 578T breast
HT29 colon = test system: HT29 colon
IGROV1 ovarian = test system: IGROV1 ovarian
K-562 leukemia = test system: K-562 leukemia
KM12 colon = test system: KM12 colon
LOX IMVI melanoma = test system: LOX IMVI melanoma
M14 melanoma = test system: M14 melanoma
MALME-3M melanoma = test system: MALME-3M melanoma
MCF7 breast = test system: MCF7 breast
MDA-MB-231 breast = test system: MDA-MB-231 breast
MDA-MB-435 = test system: MDA-MB-435
MOLT-4 leukemia = test system: MOLT-4 leukemia
NCI-H226 lung = test system: NCI-H226 lung
NCI-H23 lung = test system: NCI-H23 lung
NCI-H460 lung = test system: NCI-H460 lung
NCI-H522 lung = test system: NCI-H522 lung
NCI/ADR-RES ovarian = test system: NCI/ADR-RES ovarian
OVCAR-3 ovarian = test system: OVCAR-3 ovarian
OVCAR-4 ovarian = test system: OVCAR-4 ovarian
OVCAR-5 ovarian = test system: OVCAR-5 ovarian
OVCAR-8 ovarian = test system: OVCAR-8 ovarian
PC-3 prostate = test system: PC-3 prostate
RPMI-8226 leukemia = test system: RPMI-8226 leukemia
SF-268 CNS = test system: SF-268 CNS
SF-295 CNS = test system: SF-295 CNS
SF-539 CNS = test system: SF-539 CNS
SK-MEL-28 melanoma = test system: SK-MEL-28 melanoma
SK-MEL-5 melanoma = test system: SK-MEL-5 melanoma
SK-OV-3 ovarian = test system: SK-OV-3 ovarian
SN12C renal = test system: SN12C renal
SNB-19 CNS = test system: SNB-19 CNS
SNB-75 CNS = test system: SNB-75 CNS
SW-620 colon = test system: SW-620 colon
T-47D breast = test system: T-47D breast
TK-10 renal = test system: TK-10 renal
U251 CNS = test system: U251 CNS
UACC-257 melanoma = test system: UACC-257 melanoma
UACC-62 melanoma = test system: UACC-62 melanoma
UO-31 renal = test system: UO-31 renal

ClCCOCCn1cnc2c(Cl)nc(Cl)nc21 gave a GI50 (786-0 renal) of 19.4 µM, a TGI (786-0 renal) of 44 µM and a GI50 (A498 renal) of 16.2 µM. It also gave a TGI (A498 renal) of 32.1 µM, a GI50 (A549 NSCLC) of 21.6 µM and a TGI (A549 NSCLC) of 61.9 µM. It also gave a GI50 (ACHN renal) of 14.4 µM, a TGI (ACHN renal) of 27.5 µM and a GI50 (BT-549 breast) of 14.7 µM. For the same compound, the TGI (BT-549 breast) was 28.2 µM, the GI50 (CAKI-1 renal) was 2.61 µM and the TGI (CAKI-1 renal) was 13.5 µM. For the same compound, the GI50 (CCRF-CEM leukemia) was 11.7 µM, the TGI (CCRF-CEM leukemia) was over 100 µM and the GI50 (COLO 205 colon) was 13.2 µM. For the same compound, the TGI (COLO 205 colon) was 27.5 µM, the GI50 (DU-145 prostate) was 10.2 µM and the TGI (DU-145 prostate) was 21.9 µM. For the same compound, the GI50 (EKVX NSCLC) was 12.5 µM, the TGI (EKVX NSCLC) was 27.7 µM and the GI50 (HCC-2998 colon) was 1.42 µM. For the same compound, the TGI (HCC-2998 colon) was 2.88 µM, the GI50 (HCT-116 colon) was 10.8 µM and the TGI (HCT-116 colon) was 25.1 µM. The GI50 (HCT-15 colon) was 4.89 µM, the TGI (HCT-15 colon) was 18.9 µM and the GI50 (HL-60(TB) leukemia) was 4.08 µM. For the same compound, the TGI (HL-60(TB) leukemia) was over 100 µM, the GI50 (HOP-62 NSCLC) was 15.7 µM and the TGI (HOP-62 NSCLC) was 30.5 µM. It also gave a GI50 (HOP-92 NSCLC) of 18.9 µM, a TGI (HOP-92 NSCLC) of 45.5 µM and a GI50 (HS 578T breast) of 2.51 µM. For the same compound, the TGI (HS 578T breast) was 9.05 µM, the GI50 (HT29 colon) was 19.6 µM and the TGI (HT29 colon) was 73.6 µM. The GI50 (IGROV1 ovarian) was 3.34 µM, the TGI (IGROV1 ovarian) was 12.7 µM and the GI50 (K-562 leukemia) was 15.9 µM. For the same compound, the TGI (K-562 leukemia) was over 100 µM, the GI50 (KM12 colon) was 15.9 µM and the TGI (KM12 colon) was 29.6 µM. The GI50 (LOX IMVI melanoma) was 5.96 µM, the TGI (LOX IMVI melanoma) was 20.1 µM and the GI50 (M14 melanoma) was 13.4 µM. The TGI (M14 melanoma) was 27.9 µM, the GI50 (MALME-3M melanoma) was 13.1 µM and the TGI (MALME-3M melanoma) was 28.2 µM. The GI50 (MCF7 breast) was 3.57 µM, the TGI (MCF7 breast) was 21.4 µM and the GI50 (MDA-MB-231 breast) was 14.4 µM. For the same compound, the TGI (MDA-MB-231 breast) was 28.3 µM, the GI50 (MDA-MB-435) was 10.9 µM and the TGI (MDA-MB-435) was 24.1 µM. For the same compound, the GI50 (MOLT-4 leukemia) was 24.7 µM, the TGI (MOLT-4 leukemia) was over 100 µM and the GI50 (NCI-H226 lung) was 16.3 µM. It also gave a TGI (NCI-H226 lung) of 33.8 µM, a GI50 (NCI-H23 lung) of 12.8 µM and a TGI (NCI-H23 lung) of 29.1 µM. The GI50 (NCI-H460 lung) was 5.57 µM, the TGI (NCI-H460 lung) was 19.2 µM and the GI50 (NCI-H522 lung) was 20 µM. The TGI (NCI-H522 lung) was 50 µM, the GI50 (NCI/ADR-RES ovarian) was 17.9 µM and the TGI (NCI/ADR-RES ovarian) was 41.4 µM. The GI50 (OVCAR-3 ovarian) was 4.68 µM, the TGI (OVCAR-3 ovarian) was 15.4 µM and the GI50 (OVCAR-4 ovarian) was 17.3 µM. For the same compound, the TGI (OVCAR-4 ovarian) was 35.5 µM, the GI50 (OVCAR-5 ovarian) was 15 µM and the TGI (OVCAR-5 ovarian) was 28.9 µM. For the same compound, the GI50 (OVCAR-8 ovarian) was 10.3 µM, the TGI (OVCAR-8 ovarian) was 26.5 µM and the GI50 (PC-3 prostate) was 14 µM. The TGI (PC-3 prostate) was 31.5 µM, the GI50 (RPMI-8226 leukemia) was 18.6 µM and the TGI (RPMI-8226 leukemia) was over 100 µM. It also gave a GI50 (SF-268 CNS) of 6.82 µM, a TGI (SF-268 CNS) of 20.3 µM and a GI50 (SF-295 CNS) of 14 µM. The TGI (SF-295 CNS) was 29.3 µM, the GI50 (SF-539 CNS) was 12.1 µM and the TGI (SF-539 CNS) was 25.8 µM. The GI50 (SK-MEL-28 melanoma) was 7.09 µM, the TGI (SK-MEL-28 melanoma) was 20.1 µM and the GI50 (SK-MEL-5 melanoma) was 12.5 µM. The TGI (SK-MEL-5 melanoma) was 25.5 µM, the GI50 (SK-OV-3 ovarian) was 16.2 µM and the TGI (SK-OV-3 ovarian) was 29.8 µM. For the same compound, the GI50 (SN12C renal) was 16.2 µM, the TGI (SN12C renal) was 31.8 µM and the GI50 (SNB-19 CNS) was 16.4 µM. The TGI (SNB-19 CNS) was 30.5 µM, the GI50 (SNB-75 CNS) was 13.8 µM and the TGI (SNB-75 CNS) was 29.2 µM. It also gave a GI50 (SW-620 colon) of 6.36 µM, a TGI (SW-620 colon) of 20.3 µM and a GI50 (T-47D breast) of 14.2 µM. For the same compound, the TGI (T-47D breast) was 36.2 µM, the GI50 (TK-10 renal) was 18.5 µM and the TGI (TK-10 renal) was 60.6 µM. The GI50 (U251 CNS) was 12.3 µM, the TGI (U251 CNS) was 24.7 µM and the GI50 (UACC-257 melanoma) was 14.1 µM. For the same compound, the TGI (UACC-257 melanoma) was 28.5 µM, the GI50 (UACC-62 melanoma) was 14 µM and the TGI (UACC-62 melanoma) was 27.2 µM. It also gave a GI50 (UO-31 renal) of 13.3 µM and a TGI (UO-31 renal) of 26.7 µM.
